Results reported in patent US7994185B2, “Benzene sulfonamide thiazole and oxazole compounds” (Glaxo Smith Kline LLC, priority 2008, dated 2011).
Counter-ions that a name gives are not always drawn. Like-named read-outs stand apart in the source and are kept apart here.

Key:
[1] = target: T1, BRAFV600E full-length (amino acids 2-766) (Homo sapiens, UniProt P15056, V600E); assay: B-Raf Accelerated MEK ATPase assay (BRAMA); type: biochemical; details: categorized
T1 construct: His6-tagged BRAFV600E full-length (amino acids 2-766); His6; made in house; host or cells: baculovirus expression system (insect cells)
T1 sequence (P15056 2-766 V600E): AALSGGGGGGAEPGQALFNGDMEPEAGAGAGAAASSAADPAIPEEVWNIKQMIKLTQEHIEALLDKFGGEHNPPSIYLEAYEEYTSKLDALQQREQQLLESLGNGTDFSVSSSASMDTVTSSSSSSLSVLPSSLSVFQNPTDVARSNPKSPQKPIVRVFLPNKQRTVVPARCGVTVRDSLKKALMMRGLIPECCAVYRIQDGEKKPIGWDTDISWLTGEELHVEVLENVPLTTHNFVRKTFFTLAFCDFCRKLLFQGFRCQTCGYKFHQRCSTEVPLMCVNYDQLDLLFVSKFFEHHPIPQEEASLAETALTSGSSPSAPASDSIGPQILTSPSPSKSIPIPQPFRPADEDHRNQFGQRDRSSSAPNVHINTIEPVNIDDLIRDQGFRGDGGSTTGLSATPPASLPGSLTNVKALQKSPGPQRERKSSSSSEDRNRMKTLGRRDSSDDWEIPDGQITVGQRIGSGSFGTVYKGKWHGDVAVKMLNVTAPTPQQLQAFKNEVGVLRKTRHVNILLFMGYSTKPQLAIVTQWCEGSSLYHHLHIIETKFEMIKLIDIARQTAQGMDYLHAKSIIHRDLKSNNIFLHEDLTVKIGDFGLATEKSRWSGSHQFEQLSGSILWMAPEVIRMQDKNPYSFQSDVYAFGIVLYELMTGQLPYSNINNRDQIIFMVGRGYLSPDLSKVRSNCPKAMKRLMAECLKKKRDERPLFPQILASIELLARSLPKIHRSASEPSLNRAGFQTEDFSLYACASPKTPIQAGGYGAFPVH
How it was run: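 Coupled-enzyme readout: ADP generated by MEK-mediated ATP hydrolysis, uncoupled from ERK phosphorylation, is linked to NADH oxidation through pyruvate kinase and lactate dehydrogenase.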

[2] = system: Human colon tumor cells (Colo205); assay: Cell growth inhibition assay (CellTiter-Glo), Colo205; type: cell-based
How it was run: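 Growth is estimated from total cellular ATP measured by CellTiter-Glo luminescence after a 3-day compound exposure at 37 °C. Compounds are tested as 1:3 dilution series in 0.2% final DMSO, with inhibition expressed relative to vehicle-treated wells.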

[3] = system: Human melanoma cancer cells (SK-MEL-28); assay: Cell growth inhibition assay (CellTiter-Glo), SK-MEL-28; type: cell-based
[4] = system: pERK (pERK/tERK); assay: Pharmacodynamic effect, pERK/tERK in A375P F11s xenograft tumors; type: in vivo, mice; details: Mus musculus, read-out: inhibition of pERK (pERK/tERK)
Experimental: Animals were housed in pathogen free conditions and handled with aseptic technique. […] Detached cells were collected, centrifuged (1500 rpm, 5 min, 4° C.) and rinsed to remove the trypsin solution. Cells were resuspended in PBS without magnesium or calcium and counted. Cells were spun as previously to remove PBS and a single cell suspension was created either in 50% Matrigel: 50% PBS (v:v) or 100% PBS so that a 100 μL subcutaneous injection would deliver the required number of cells per mouse. The A375P F11s melanoma line was injected with Matrigel at 4 million cells per mouse. Tumors were established (˜150-300 mm^3) for all cell lines within 2-4 weeks post-injection.
At 2 h following oral administration of compound mice were euthanized using carbon dioxide. Tumors were carefully excised, homogenized using Medimachine (BD Bioscience) with 1 ml of lysis buffer (25 mM Tris-HCl (pH 7.5), 2 mM EDTA (pH 8.0), 2 mM EGTA (pH 8.0), 1% Triton X-100, 0.1% SDS, 50 mM Na—B—PO4, 2 mM NaVO4, 4 mM Na-Pyr-PO4, 2× phosphatase inhibitor cocktail. Crude homogenate was transferred to a 12 ml polypropylene tube containing 1.5 ml of lysis buffer and kept on ice. Following homogenization of all samples, 1 ml of homogenate was transferred to an eppendorf tube and centrifuged at 14,000 rpm for 15 min at 4° C. Five hundred microliter of clarified lysate was transferred to a new tube, flash frozen and processed for quantitation of pERK and tERK using western blot or Elisa (MSD) assays. […] BioRad dye was added to BSA dilutions and diluted test lysates. […] Comparison to the standard curve provides a relative measurement of protein concentration. […] The gels were transferred onto nitro-cellulose membranes using the iBlot transfer apparatus, which were then blocked and incubated with different primary antibodies overnight at 4° C. Western blots dually probed against pERK and tERK were scanned using LI-COR Odyssey® reader. A ratio of the immunofluorescent density obtained for pERK/tERK is calculated and expressed as a ratio (in percentage) to control untreated samples. For determination of pERK/tERK ratio by ELISA, MesoScale Discovery (MSD) (cat# K15107) plate were used according to manufacturer's instructions. In brief, MSD plates were block with 150 μl/well of blocking buffer for 1 hr before being washed 4 times with 200 μl of washing buffer. Thirty microliter (30 μl) of serially diluted samples was added to wells and plates were incubated overnight at 4° C. under slow agitation (˜500 rpm). Plates were washed 4 times in 200 μl 1× Tris wash buffer and 25 μl detection antibody solution was added to all wells and incubated at room temperature for 1 hr (˜500 rpm). Plates were washed 4 times in 200 μl wash buffer and 150 μl of read buffer was added to all wells. Plates were read on MSD.SI6000. In this assay vehicle and compound treated samples were tested at 4 different dilutions to allow linear range coverage of the assay. From pERK and tERK signal, background (BSA signal) was subtracted and ratio of pERK/tERK determined and normalized to untreated vehicle samples, arbitrarily set at 100%.

[5] = B-Raf Activity, Table 1a, highest pIC50 for the one or more runs
[6] = B-Raf pIC50, Table 1b, later runs, average pIC50 for the one or more runs
[7] = COLO 205, 72 h, Table 2a, 3 days incubation, read-out: Activity in Colo205 Tumor Cells
[8] = COLO 205, Table 2b, later runs, average for the one or more runs, categorized, read-out: IC50 for Colo205
[9] = SK-MEL-28, 72 h, Table 3a, 3 days incubation, read-out: Activity in SK-MEL-28 Tumor Cells
[10] = SK-MEL-28, Table 3b, later runs, average for the one or more runs, categorized, read-out: IC50 for SK-MEL-28
[11] = A375P F11s xenograft tumors, single oral dose of 100 mg/kg, 2 h after administration
[12] = Table 1b, later runs, average pIC50 for the one or more runs, read-out: B-Raf pIC50 (converted)

SMILES | IC50 [1, 5] [µM] | IC50 [1, 6] [µM] | IC50 [2, 7] [µM] | IC50 [2, 8] [µM] | IC50 [3, 9] [µM] | IC50 [3, 10] [µM] | inhibition at 100 mg/kg [4, 11] [%] | IC50 [1, 12] [µM] | inhibition at 100 mg/kg ([4]; A375P, po, 2 h) [%]
Nc1nccc(-c2sc(N3CCOCC3)nc2-c2cccc(NS(=O)(=O)c3ccco3)c2Cl)n1 [Example 24, N-{3-[5-(2-Amino-4-pyrimidinyl)-2-(4-morpholinyl)-1,3-thiazol-4-yl]-2-chlorophenyl}-2-furansulfonamide] | < 0.1 | ≤ 0.00316 | < 0.1 | 0.1 to 1 | < 0.1 | 0.1 to 1 | ≥ 30 | – | –
Cc1nccc(-c2sc(C3CCOCC3)nc2-c2cccc(NS(=O)(=O)c3c(F)cccc3F)c2Cl)n1 [Example 25, N-{2-Chloro-3-[5-(2-methyl-4-pyrimidinyl)-2-(tetrahydro-2H-pyran-4-yl)-1,3-thiazol-4-yl]phenyl}-2,6-difluorobenzenesulfonamide trifluoroacetate] | < 0.1 | – | 0.1 to 1 | 0.1 to 1 | < 0.1 | < 0.1 | ≥ 30 | 0.00316 to 0.0316 | –
O=S(=O)(Nc1cccc(-c2nc(C3CCOCC3)sc2-c2ccncn2)c1Cl)c1c(F)cccc1F [Example 26, N-{2-Chloro-3-[5-(4-pyrimidinyl)-2-(tetrahydro-2H-pyran-4-yl)-1,3-thiazol-4-yl]phenyl}-2,6-difluorobenzenesulfonamide] | < 0.1 | ≤ 0.00316 | < 0.1 | < 0.1 | < 0.1 | < 0.1 | ≥ 30 | – | –
CC(C)(C)c1nc(-c2cccc(NS(=O)(=O)c3c(F)cccc3F)c2F)c(-c2ccnc(N)n2)s1 [Example 58, N-{3-[5-(2-amino-4-pyrimidinyl)-2-(1,1-dimethylethyl)-1,3-thiazol-4-yl]-2-fluorophenyl}-2,6-difluorobenzenesulfonamide] | – | – | < 0.1 | – | < 0.1 | – | – | – | ≥ 30
Nc1nccc(-c2sc(N3CCOCC3)nc2-c2cccc(NS(=O)(=O)c3c(F)cccc3F)c2F)n1 [Example 59, N-{3-[5-(2-Amino-4-pyrimidinyl)-2-(4-morpholinyl)-1,3-thiazol-4-yl]-2-fluorophenyl}-2,6-difluorobenzenesulfonamide] | < 0.1 | – | 0.1 to 1 | 0.1 to 1 | 0.1 to 1 | 0.1 to 1 | ≥ 30 | 0.00316 to 0.0316 | –
Nc1nccc(-c2sc(C3CCOCC3)nc2-c2cccc(NS(=O)(=O)c3c(F)cccc3F)c2F)n1 [Example 64, N-{3-[5-(2-amino-4-pyrimidinyl)-2-(tetrahydro-2H-pyran-4-yl)-1,3-thiazol-4-yl]-2-fluorophenyl}-2,6-difluorobenzenesulfonamide] | < 0.1 | ≤ 0.00316 | < 0.1 | < 0.1 | < 0.1 | < 0.1 | ≥ 30 | – | –
Cc1nccc(-c2sc(C(C)(C)C)nc2-c2cccc(NS(=O)(=O)c3cc(F)ccc3F)c2F)n1 [Example 65, N-{3-[2-(1,1-dimethylethyl)-5-(2-methyl-4-pyrimidinyl)-1,3-thiazol-4-yl]-2-fluorophenyl}-2,5-difluorobenzenesulfonamide] | < 0.1 | ≤ 0.00316 | < 0.1 | < 0.1 | < 0.1 | < 0.1 | ≥ 30 | – | –
CC(C)(C)c1nc(-c2cccc(NS(=O)(=O)c3cc(F)ccc3F)c2F)c(-c2ccncn2)s1 [Example 66, N-{3-[2-(1,1-Dimethylethyl)-5-(4-pyrimidinyl)-1,3-thiazol-4-yl]-2-fluorophenyl}-2,5-difluorobenzenesulfonamide] | < 0.1 | ≤ 0.00316 | < 0.1 | < 0.1 | < 0.1 | < 0.1 | ≥ 30 | – | –
Nc1nccc(-c2sc(N3CCOCC3)nc2-c2cccc(NS(=O)(=O)c3cc(F)ccc3F)c2Cl)n1 [Example 156] | < 0.1 | ≤ 0.00316 | < 0.1 | < 0.1 | < 0.1 | < 0.1 | ≥ 30 | – | –
Cn1nccc1S(=O)(=O)Nc1cccc(-c2nc(C(C)(C)C)sc2-c2ccnc(N)n2)c1F [Example 282, N-{3-[5-(2-amino-4-pyrimidinyl)-2-(1,1-dimethylethyl)-1,3-thiazol-4-yl]-2-fluorophenyl}-1-methyl-1H-pyrazole-5-sulfonamide hydrochloride] | – | 0.0316 to 1 | – | 0.1 to 1 | – | 1 to 10 | – | – | –
Cn1cc(S(=O)(=O)Nc2cccc(-c3nc(C(C)(C)C)sc3-c3ccnc(N)n3)c2F)cn1 [Example 283, N-{3-[5-(2-amino-4-pyrimidinyl)-2-(1,1-dimethylethyl)-1,3-thiazol-4-yl]-2-fluorophenyl}-1-methyl-1H-pyrazole-4-sulfonamide hydrochloride] | – | – | – | 0.1 to 1 | – | 0.1 to 1 | – | 0.00316 to 0.0316 | –
Cn1ccc(S(=O)(=O)Nc2cccc(-c3nc(C(C)(C)C)sc3-c3ccnc(N)n3)c2F)c1 [Example 284, N-{3-[5-(2-amino-4-pyrimidinyl)-2-(1,1-dimethylethyl)-1,3-thiazol-4-yl]-2-fluorophenyl}-1-methyl-1H-pyrrole-3-sulfonamide hydrochloride] | – | 0.0316 to 1 | – | 0.1 to 1 | – | 0.1 to 1 | – | – | –
Cn1ccc(S(=O)(=O)Nc2cccc(-c3nc(C4CCOCC4)sc3-c3ccnc(N)n3)c2F)c1 [Example 285, N-{3-[5-(2-amino-4-pyrimidinyl)-2-(tetrahydro-2H-pyran-4-yl)-1,3-thiazol-4-yl]-2-fluorophenyl}-1-methyl-1H-pyrrole-3-sulfonamide hydrochloride] | – | 0.0316 to 1 | – | 0.1 to 1 | – | 1 to 10 | – | – | –
Cn1cc(S(=O)(=O)Nc2cccc(-c3nc(C4CCOCC4)sc3-c3ccnc(N)n3)c2F)cn1 [Example 286, N-{3-[5-(2-amino-4-pyrimidinyl)-2-(tetrahydro-2H-pyran-4-yl)-1,3-thiazol-4-yl]-2-fluorophenyl}-1-methyl-1H-pyrazole-4-sulfonamide hydrochloride] | – | – | – | 0.1 to 1 | – | 0.1 to 1 | – | 0.00316 to 0.0316 | –
Cn1ccnc1S(=O)(=O)Nc1cccc(-c2nc(C(C)(C)C)sc2-c2ccnc(N)n2)c1F [Example 287, N-{3-[5-(2-amino-4-pyrimidinyl)-2-(1,1-dimethylethyl)-1,3-thiazol-4-yl]-2-fluorophenyl}-1-methyl-1H-imidazole-2-sulfonamide hydrochloride] | – | – | – | 0.1 to 1 | – | 0.1 to 1 | – | 0.00316 to 0.0316 | –
CC(C)(CO)c1nc(-c2cccc(NS(=O)(=O)c3c(F)cccc3F)c2F)c(-c2ccnc(N)n2)s1 [Example 295, N-{3-[5-(2-amino-4-pyrimidinyl)-2-(2-hydroxy-1,1-dimethylethyl)-1,3-thiazol-4-yl]-2-fluorophenyl}-2,6-difluorobenzenesulfonamide] | – | ≤ 0.00316 | – | < 0.1 | – | < 0.1 | – | – | –
